According to US6124269A, “2-Halo-6-O-substituted ketolide derivatives” (priority 1998, dated 2000):
≈ marks a conversion by molar mass, not a printed value.

Assays:
Type in all cases: cell-based
[1] = system: Streptococcus pneumoniae ATCC 6303; experiment: In vitro agar dilution MIC, organism code XX; conditions: unit assumed
Procedure: (§1) Representative compounds of the present invention were assayed in vitro for antibacterial activity as follows: Twelve petri dishes containing successive aqueous dilutions of the test compound mixed with 10 mL of sterilized Brain Heart Infusion (BHI) agar (Difco 0418-01-5) were prepared. Each plate was inoculated with 1:100 (or 1:10 for slow-growing strains, such as Micrococcus and Streptococcus) dilutions of up to 32 different microorganisms, using a Steers replicator block. The inoculated plates were incubated at 35-37° C. for 20 to 24 hours. In addition, a control plate, using BHI agar containing no test compound, was prepared and incubated at the beginning and end of each test.
(§2) An additional plate containing a compound having known susceptibility patterns for the organisms being tested and belonging to the same antibiotic class as the test compound was also prepared and incubated as a further control, as well as to provide test-to-test comparability.
(§3) After incubation, each plate was visually inspected. The minimum inhibitory concentration (MIC) was defined as the lowest concentration of drug yielding no growth, a slight haze, or sparsely isolated colonies on the inoculum spot as compared to the growth control.

[2] = system: Staphylococcus aureus ATCC 6538P; experiment: In vitro agar dilution MIC, organism code AA; conditions: Table 1B, unit assumed
Procedure: as §1, §2, §3

[3] = system: Staphylococcus aureus NCTC10649M; experiment: In vitro agar dilution MIC, organism code EE; conditions: Table 1B, unit assumed
Procedure: as §1, §2, §3

[4] = system: Micrococcus luteus ATCC 4698; experiment: In vitro agar dilution MIC, organism code PP; conditions: Table 1B, in µg/mL (unit assumed)
Procedure: as §1, §2, §3

[5] = system: Staphylococcus aureus A-5278; experiment: In vitro agar dilution MIC, organism code CC; conditions: Table 1B, unit assumed
Procedure: as §1, §2, §3

[6] = system: Enterococcus faecium ATCC 8043; experiment: In vitro agar dilution MIC, organism code II; conditions: Table 1B, unit assumed
Procedure: as §1, §2, §3

Escherichia coli DC-2 = experiment: In vitro agar dilution MIC, organism code SS; conditions: Table 1B, unit assumed
Procedure: as §1, §2, §3

[7] = system: Streptococcus pneumoniae 5649; experiment: In vitro agar dilution MIC, organism code ZZA; conditions: unit assumed
Procedure: as §1, §2, §3

[8] = system: Staphylococcus epidermidis 3519; experiment: In vitro agar dilution MIC, organism code HH; conditions: Table 1B, in µg/mL (unit assumed)
Procedure: as §1, §2, §3

[9] = system: Streptococcus pneumoniae 5979; experiment: In vitro agar dilution MIC, organism code ZZ; conditions: unit assumed
Procedure: as §1, §2, §3

[10] = system: Streptococcus pneumoniae GYR 1171; experiment: In vitro agar dilution MIC, organism code YY; conditions: Table 1B, unit assumed
Procedure: as §1, §2, §3

[11] = system: Streptococcus pyogenes 930; experiment: In vitro agar dilution MIC, organism code MM; conditions: unit assumed
Procedure: as §1, §2, §3

[12] = system: Nocardia asteroides ATCC 9970; experiment: In vitro agar dilution MIC, organism code VV; conditions: Table 1B, in µg/mL (unit assumed)
Procedure: as §1
as §2, with “comparability. Erythromycin A was used for this purpose.” for “comparability.”
as §3

[13] = system: Mycobacterium smegmatis ATCC 114; experiment: In vitro agar dilution MIC, organism code UU; conditions: Table 1B, in µg/mL (unit assumed)
Procedure: as §1, §2, §3

[14] = system: Streptococcus agalactiae CMX 508; experiment: In vitro agar dilution MIC, organism code KK; conditions: Table 1B, unit assumed
Procedure: as §1, §2, §3

[15] = system: Staphylococcus aureus 1775; experiment: In vitro agar dilution MIC, organism code GG; conditions: Table 1B, unit assumed
Procedure: as §1, §2, §3

[16] = system: Streptococcus pyogenes PIU 2548; experiment: In vitro agar dilution MIC, organism code NN; conditions: unit assumed
Procedure: as §1, §2, §3

Candida albicans CCH 442 = experiment: In vitro agar dilution MIC, organism code TT; conditions: Table 1B, unit assumed
Procedure: as §1, §2, §3

[17] = system: Staphylococcus aureus A5177; experiment: In vitro agar dilution MIC, organism code BB; conditions: Table 1B, in µg/mL (unit assumed)
Procedure: as §1, §2, §3

[18] = system: Staphylococcus aureus CMX 642A; experiment: In vitro agar dilution MIC, organism code DD; conditions: Table 1B, unit assumed
Procedure: as §1, §2, §3

[19] = system: Staphylococcus aureus CMX 553; experiment: In vitro agar dilution MIC, organism code FF; conditions: Table 1B, unit assumed
Procedure: as §1, §2, §3

[20] = system: Micrococcus luteus ATCC 9341; experiment: In vitro agar dilution MIC, organism code OO; conditions: Table 1B, unit assumed
Procedure: as §1, §2, §3

[21] = system: Streptococcus pyogenes EES61; experiment: In vitro agar dilution MIC, organism code LL; conditions: unit assumed
Procedure: as §1, §2, §3

[22] = system: Streptococcus bovis A-5169; experiment: In vitro agar dilution MIC, organism code JJ; conditions: Table 1B, unit assumed
Procedure: as §1, §2, §3

[23] = system: Haemophilis influenzae DILL AMP R; experiment: In vitro agar dilution MIC, organism code WW; conditions: unit assumed
Procedure: as §1, §2, §3

Escherichia coli SS = experiment: In vitro agar dilution MIC, organism code RR; conditions: Table 1B, in µg/mL (unit assumed)
Procedure: as §1, §2, §3

Escherichia coli JUHL = experiment: In vitro agar dilution MIC, organism code QQ; conditions: Table 1B, in µg/mL (unit assumed)
Procedure: as §1, §2, §3

Row | Compound | MIC ([1]; Table 1B) [µg/mL] | MIC [2] [µg/mL] | MIC [3] [µg/mL] | MIC [4] | MIC [5] [µg/mL] | MIC [6] [µg/mL] | MIC (Escherichia coli DC-2) [µg/mL] | MIC ([7]; Table 1B) [µg/mL] | MIC [8] | MIC ([9]; Table 1B) [µg/mL] | MIC [10] [µg/mL] | MIC ([11]; Table 1B) [µg/mL] | MIC [12] | MIC [13] | MIC [14] [µg/mL] | MIC [15] [µg/mL] | MIC ([16]; Table 1B) [µg/mL] | MIC (Candida albicans CCH 442) [µg/mL] | MIC [17] | MIC [18] [µg/mL] | further results
1 | CC[C@H]1OC(=O)[C@@](C)(F)C(=O)[C@H](C)[C@@H](O[C@@H]2O[C@H](C)C[C@H](N(C)C)[C@H]2O)[C@](C)(OC/C=C/c2cnc3ccc(N(C)C)cc3c2)C[C@@H](C)C(=O)[C@H](C)[C@H]2NC(=O)O[C@@]21C [Example 13] | 0.06 (≈ 0.0726 µM) | 0.2 (≈ 0.242 µM) | 0.2 (≈ 0.242 µM) | 0.2 | > 100 | 0.1 (≈ 0.121 µM) | 100 (≈ 121 µM) | 0.5 (≈ 0.605 µM) | 0.2 | 1 (≈ 1.21 µM) | 0.06 (≈ 0.0726 µM) | 0.78 (≈ 0.943 µM) | 0.05 | 0.78 | 0.02 (≈ 0.0242 µM) | > 100 | 0.2 (≈ 0.242 µM) | > 100 | 0.2 | 0.2 (≈ 0.242 µM) | MIC [19]: 0.2 µg/mL (≈ 0.242 µM); MIC [20]: 0.02 µg/mL (≈ 0.0242 µM); MIC ([21]; Table 1B): 0.05 µg/mL (≈ 0.0605 µM); MIC [22]: 0.02 µg/mL (≈ 0.0242 µM); MIC ([23]; Table 1B): 8 µg/mL (≈ 9.67 µM); MIC (Escherichia coli SS): 0.78; MIC (Escherichia coli JUHL): 50
2 | CC[C@H]1OC(=O)C(C)(F)C(=O)[C@H](C)[C@@H](O[C@@H]2O[C@H](C)C[C@H](N(C)C)[C@H]2O)[C@](C)(OCC#Cc2cnc3ccccc3c2)C[C@@H](C)C(=O)[C@H](C)[C@H]2NC(=O)O[C@@]21C (stereo partly shown) [Example 26] | ≤ 0.004 | 0.05 (≈ 0.0639 µM) | 0.1 (≈ 0.128 µM) | 0.05 | > 100 | 0.02 (≈ 0.0256 µM) | 25 (≈ 32 µM) | 0.25 (≈ 0.32 µM) | 0.05 | 16 (≈ 20.5 µM) | ≤ 0.004 | 0.1 (≈ 0.128 µM) | 0.01 | 0.2 | 0.02 (≈ 0.0256 µM) | > 100 | 0.05 (≈ 0.0639 µM) | > 100 | 0.05 | 0.05 (≈ 0.0639 µM) | MIC [19]: 0.05 µg/mL (≈ 0.0639 µM); MIC [20]: 0.02 µg/mL (≈ 0.0256 µM); MIC ([21]; Table 1B): 0.02 µg/mL (≈ 0.0256 µM); MIC [22]: 0.01 µg/mL (≈ 0.0128 µM); MIC ([23]; Table 1B): 2 µg/mL (≈ 2.56 µM); MIC (Escherichia coli SS): 0.2; MIC (Escherichia coli JUHL): 25
3 | CC[C@H]1OC(=O)C(C)(F)C(=O)[C@H](C)[C@@H](O[C@@H]2O[C@H](C)C[C@H](N(C)C)[C@H]2O)[C@](C)(OCC#Cc2ccc(-c3cccs3)s2)C[C@@H](C)C(=O)[C@H](C)[C@H]2NC(=O)O[C@@]21C (stereo partly shown) [Example 28] | ≤ 0.004 | 0.05 (≈ 0.061 µM) | 0.2 (≈ 0.244 µM) | 0.05 | > 100 | 0.05 (≈ 0.061 µM) | 100 (≈ 122 µM) | 0.25 (≈ 0.305 µM) | 0.1 | 16 (≈ 19.5 µM) | ≤ 0.004 | 0.78 (≈ 0.952 µM) | 0.02 | 0.39 | 0.02 (≈ 0.0244 µM) | > 100 | 0.2 (≈ 0.244 µM) | > 100 | 0.1 | 0.1 (≈ 0.122 µM) | MIC [19]: 0.1 µg/mL (≈ 0.122 µM); MIC [20]: 0.02 µg/mL (≈ 0.0244 µM); MIC ([21]; Table 1B): 0.02 µg/mL (≈ 0.0244 µM); MIC [22]: 0.01 µg/mL (≈ 0.0122 µM); MIC ([23]; Table 1B): 2 µg/mL (≈ 2.44 µM); MIC (Escherichia coli SS): 0.78; MIC (Escherichia coli JUHL): 100
4 | CC[C@H]1OC(=O)[C@@](C)(F)C(=O)[C@H](C)[C@@H](O[C@@H]2O[C@H](C)C[C@H](N(C)C)[C@H]2O)[C@](C)(OC/C=C/c2cnc3ccccc3c2)C[C@@H](C)C(=O)[C@H](C)[C@H]2NC(=O)O[C@@]21C [Example 5] | 0.03 (≈ 0.0383 µM) | 0.05 (≈ 0.0638 µM) | 0.05 (≈ 0.0638 µM) | 0.1 | > 100 | 0.02 (≈ 0.0255 µM) | 25 (≈ 31.9 µM) | 0.25 (≈ 0.319 µM) | 0.05 | 1 (≈ 1.28 µM) | 0.03 (≈ 0.0383 µM) | 0.2 (≈ 0.255 µM) | 0.005 | 0.2 | 0.01 (≈ 0.0128 µM) | > 100 | 0.05 (≈ 0.0638 µM) | 12.5 (≈ 15.9 µM) | 0.05 | 0.05 (≈ 0.0638 µM) | MIC ([1]; Table 1D): 0.03 µg/mL (≈ 0.0383 µM); MIC ([7]; Table 1D): 0.25 µg/mL (≈ 0.319 µM); MIC ([9]; Table 1D): 1 µg/mL (≈ 1.28 µM); MIC ([11]; Table 1D): 0.25 µg/mL (≈ 0.319 µM); MIC ([16]; Table 1D): 0.25 µg/mL (≈ 0.319 µM); MIC [19]: 0.05 µg/mL (≈ 0.0638 µM); MIC [20]: 0.01 µg/mL (≈ 0.0128 µM); MIC ([21]; Table 1B): 0.01 µg/mL (≈ 0.0128 µM); MIC ([21]; Table 1D): 0.03 µg/mL (≈ 0.0383 µM); MIC [22]: 0.005 µg/mL (≈ 0.00638 µM); MIC ([23]; Table 1B): 1 µg/mL (≈ 1.28 µM); MIC ([23]; Table 1D): 1 µg/mL (≈ 1.28 µM); MIC (Escherichia coli SS): 0.2; MIC (Escherichia coli JUHL): 25
